Broadly, the bioavailability is dose-corrected exposure relative to a reference, in per cent. Usually CL/F stands for the apparent clearance, not corrected for the fraction that reaches the circulation. By Vd is commonly meant the apparent volume that relates the amount in the body to the concentration in plasma or blood. Low values mean little distribution into tissue, high ones wide distribution into tissue. The clearance is the rate of elimination divided by the concentration. Read a low clearance as inefficient removal. What is called half-life is how long it takes for the measured level to halve. For orientation: Kd means the constant that tells how readily two partners part at equilibrium. As a reminder, the IC50 is the concentration that gives 50% inhibition. The term EC50 denotes the concentration giving half of the maximal effect. The inhibition is how much of the control response was suppressed. What is called AUC is the area under the concentration-time curve, a measure of exposure. A low value points to less exposure.

Several values for one entry are separate records, joined by “and”; a condition that tells them apart may be missing. Equal entries are not always repeated.

Data set [1] can be described thus: Oral bioavailability in 2 hrs fasted CD-1 mouse at 3 mg/kg. Format: ADME, organism-based. The settings on record: in vivo.
Data set [2] is described as follows: Volume of distribution at steady state in 2 hrs fasted CD-1 mouse at 3 mg/kg, po. In kind it is ADME, organism-based. The settings on record: in vivo.
Data set [3] can be described thus: Clearance in 2 hrs fasted CD-1 mouse at 3 mg/kg, po. Format: ADME, organism-based. The conditions noted are these: in vivo.
Data set [4] in a line: AUC (last) in 2 hrs fasted CD-1 mouse at 3 mg/kg, po. Format: ADME, organism-based. Further details: dose 3 mg/kg, route po. The settings on record: in vivo.
Data set [5] is described as follows: Volume of distribution in C57BL/6 mouse plasma at 5 mg/kg, iv. Format: ADME, organism-based.
Data set [6] in a line: Clearance in C57BL/6 mouse plasma at 5 mg/kg, iv. Format: ADME, organism-based.
The nature of data set [7]: Half life in C57BL/6 mouse plasma at 5 mg/kg, iv. Format: ADME, organism-based.
For data set [8], the target named is T1, Receptor-interacting serine/threonine-protein kinase 1 (Homo sapiens, UniProt Q13546).
T1 sequence (Q13546 whole entry): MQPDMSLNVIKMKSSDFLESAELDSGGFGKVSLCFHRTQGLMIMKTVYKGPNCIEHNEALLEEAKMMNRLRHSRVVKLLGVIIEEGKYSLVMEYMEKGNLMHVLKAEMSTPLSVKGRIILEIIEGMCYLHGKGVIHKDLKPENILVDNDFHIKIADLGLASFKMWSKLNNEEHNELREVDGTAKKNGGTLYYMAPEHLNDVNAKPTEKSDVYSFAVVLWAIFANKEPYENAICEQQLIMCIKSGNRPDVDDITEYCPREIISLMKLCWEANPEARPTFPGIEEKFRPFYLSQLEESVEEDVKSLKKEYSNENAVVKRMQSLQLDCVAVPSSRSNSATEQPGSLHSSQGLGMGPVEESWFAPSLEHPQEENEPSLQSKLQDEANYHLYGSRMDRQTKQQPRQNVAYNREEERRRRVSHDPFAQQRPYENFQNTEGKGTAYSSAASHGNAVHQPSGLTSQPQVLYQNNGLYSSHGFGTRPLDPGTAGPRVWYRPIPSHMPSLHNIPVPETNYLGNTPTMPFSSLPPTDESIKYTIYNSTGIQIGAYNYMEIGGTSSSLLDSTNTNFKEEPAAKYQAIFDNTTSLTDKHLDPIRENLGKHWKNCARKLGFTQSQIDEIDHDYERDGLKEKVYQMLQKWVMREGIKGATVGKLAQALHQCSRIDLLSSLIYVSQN
The data set can be described thus: Binding affinity to RIPK1 (unknown origin) by ADP-GlO assay.

The nature of data set [9]: Anti-necroptotic activity in mouse dermal fibroblast assessed as inhibition in T/S/Q induced necroptosis measured by flow cytometry. In kind it is functional, cell-based. On the technique in general: Flow cytometry measures light scatter and fluorescence of single cells or particles in a stream.
Data set [10] relates to Jurkat. The data set can be described thus: Anti-necroptotic activity in FADD-deficient human Jurkat cells assessed as reduction in cell growth preincubated for 30 mins followed by TNFalpha stimulation incubated overnight by CellTiter-Glo assay. In kind it is functional, cell-based.
The subject of data set [11] is Jurkat. The data set can be described thus: Anti-necroptotic activity in FADD null human Jurkat cells assessed as inhibition of T/S/Z induced necroptosis by CellTiter-Glo Luminescent Cell Viability assay. In kind it is functional, cell-based.
The subject of a further data set is HT-29. As to the kind of experiment: Anti-necroptotic activity in human HT-29 cells assessed as inhibition of T/S/Z induced necroptosis by CellTiter-Glo Luminescent Cell Viability assay. In kind it is functional, cell-based. Background: In ATP-based viability assays light output follows the ATP content of the culture.
A short description of data set [12]: Anti-necroptotic activity in mouse BMDM cells assessed as inhibition of TNF/zVAD.fmk induced necroptosis pretreated for 30 mins measured after 19 to 21 hrs by CellTiter-Glo Luminescent Cell Viability assay.
The target in data set [13] is Receptor-interacting serine/threonine-protein kinase 2 (Homo sapiens) (UniProt O43353). As to the kind of experiment: Inhibition of RIPK2 (unknown origin) at 1 uM relative to control.
Data set [14] addresses T2, Receptor-interacting serine/threonine-protein kinase 3 (Homo sapiens, UniProt Q9Y572). The data set can be described thus: Inhibition of RIPK3 (unknown origin) expressed in NIH3T3 cells assessed as inhibition of dimerizer-induced pMLKL level by Western blot analysis. Format: cell-based. (In general: In western blotting, separated proteins are transferred to a membrane and probed.)

Data set [15] addresses T2, Receptor-interacting serine/threonine-protein kinase 3. The data set can be described thus: Inhibition of human RIPK3 using MBP as substrate by [gamma33-ATP] based radiometric assay.
For a further data set, the target named is CYP3A4 (Homo sapiens, UniProt P08684). The data set can be described thus: Inhibition of CYP3A4 (unknown origin) at 10 uM. In kind it is ADME.
A further data set has as its target T3, CYP1A2 (Homo sapiens, UniProt P05177).
T3 sequence (P05177 whole entry): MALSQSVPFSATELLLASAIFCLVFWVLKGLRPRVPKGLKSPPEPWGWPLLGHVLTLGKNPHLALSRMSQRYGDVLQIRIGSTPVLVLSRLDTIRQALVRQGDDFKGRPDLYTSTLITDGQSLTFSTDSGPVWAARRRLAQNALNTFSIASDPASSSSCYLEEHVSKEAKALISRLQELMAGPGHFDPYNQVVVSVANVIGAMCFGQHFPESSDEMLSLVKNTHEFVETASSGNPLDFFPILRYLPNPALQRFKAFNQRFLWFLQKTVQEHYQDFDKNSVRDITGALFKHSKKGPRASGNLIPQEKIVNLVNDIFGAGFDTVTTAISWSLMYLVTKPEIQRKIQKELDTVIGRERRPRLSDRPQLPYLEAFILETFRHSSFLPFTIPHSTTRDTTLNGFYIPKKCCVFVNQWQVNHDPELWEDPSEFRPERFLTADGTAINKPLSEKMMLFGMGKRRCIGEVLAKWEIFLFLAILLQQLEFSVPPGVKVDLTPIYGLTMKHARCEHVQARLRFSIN
The data set can be described thus: Inhibition of CYP1A2 (unknown origin) at 10 uM. Format: ADME.

Data set [16] in a line: Metabolic stability in mouse liver microsomes assessed as intrinsic clearance. Format: ADME, Microsome. The conditions noted are these: read-out: CLH.
The next data set deals with CYP2D6 (Homo sapiens, UniProt P10635). As to the kind of experiment: Inhibition of CYP2D6 (unknown origin) at 10 uM. In kind it is ADME.
A further data set has as its target CYP2C19 (Homo sapiens, UniProt P33261). As to the kind of experiment: Inhibition of CYP2C19 (unknown origin) at 10 uM. In kind it is ADME.
Data set [17] is described as follows: Metabolic stability in rat liver microsomes assessed as half life. Format: ADME, Microsome.
The nature of data set [18]: Metabolic stability in rat liver microsomes assessed as intrinsic clearance. Format: ADME, Microsome. The settings on record: read-out: CLH.
In another data set the target is CYP2C9 (Homo sapiens, UniProt P11712). The data set can be described thus: Inhibition of CYP2C9 (unknown origin) at 10 uM. Format: ADME.
Data set [19] is described as follows: AUC in ICR mouse at 10 mg/kg, po. Format: ADME, organism-based. Further details: dose 10 mg/kg, route po. The settings on record: in vivo.
The nature of data set [20]: Clearance in ICR mouse at 2 mg/kg, iv. Format: ADME, organism-based. The conditions noted are these: in vivo.
Data set [21] can be described thus: Volume of distribution in ICR mouse at 2 mg/kg, iv. Format: ADME, organism-based. The conditions noted are these: in vivo.
Data set [22] is described as follows: Metabolic stability in mouse liver microsomes assessed as half life. In kind it is ADME, Microsome.
Data set [23] can be described thus: Half life in ICR mouse at 2 mg/kg, iv. The settings on record: in vivo. In kind it is ADME, organism-based.
Data set [24] addresses Voltage-gated inwardly rectifying potassium channel KCNH2 (Homo sapiens, UniProt Q12809). The data set can be described thus: Inhibition of hERG at 10 uM. Format: toxicity.

Chain of Receptor-interacting serine/threonine-protein kinase 2 (Homo sapiens) (O43353 whole entry): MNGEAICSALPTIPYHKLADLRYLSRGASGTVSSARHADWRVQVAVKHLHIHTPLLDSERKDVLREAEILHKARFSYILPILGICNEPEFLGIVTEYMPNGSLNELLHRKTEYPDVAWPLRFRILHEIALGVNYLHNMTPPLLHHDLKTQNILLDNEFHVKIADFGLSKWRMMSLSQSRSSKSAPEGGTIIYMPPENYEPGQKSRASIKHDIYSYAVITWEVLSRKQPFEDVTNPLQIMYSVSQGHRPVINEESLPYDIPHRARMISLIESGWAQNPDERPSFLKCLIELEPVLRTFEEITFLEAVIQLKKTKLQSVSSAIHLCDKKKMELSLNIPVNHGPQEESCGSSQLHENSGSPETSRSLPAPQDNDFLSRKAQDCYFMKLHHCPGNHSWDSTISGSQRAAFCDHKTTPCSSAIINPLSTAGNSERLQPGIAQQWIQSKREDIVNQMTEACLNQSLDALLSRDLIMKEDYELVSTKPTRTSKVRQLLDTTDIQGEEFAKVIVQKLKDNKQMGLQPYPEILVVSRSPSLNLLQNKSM
T2 sequence (Q9Y572 whole entry): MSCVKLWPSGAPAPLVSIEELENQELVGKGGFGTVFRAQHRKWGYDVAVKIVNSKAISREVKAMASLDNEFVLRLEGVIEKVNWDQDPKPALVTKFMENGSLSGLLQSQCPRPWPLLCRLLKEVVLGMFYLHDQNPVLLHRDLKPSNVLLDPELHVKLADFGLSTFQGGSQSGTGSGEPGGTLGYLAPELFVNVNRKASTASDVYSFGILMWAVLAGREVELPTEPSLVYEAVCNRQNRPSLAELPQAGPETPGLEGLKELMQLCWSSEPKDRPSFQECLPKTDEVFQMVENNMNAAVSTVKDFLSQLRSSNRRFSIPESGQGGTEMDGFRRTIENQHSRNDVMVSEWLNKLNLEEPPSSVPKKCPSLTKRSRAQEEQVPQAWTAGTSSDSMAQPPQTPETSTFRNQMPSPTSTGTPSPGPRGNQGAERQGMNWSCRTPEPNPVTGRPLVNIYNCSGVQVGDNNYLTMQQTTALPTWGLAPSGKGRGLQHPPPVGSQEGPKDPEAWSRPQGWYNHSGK
Chain of CYP2C9 (P11712 whole entry): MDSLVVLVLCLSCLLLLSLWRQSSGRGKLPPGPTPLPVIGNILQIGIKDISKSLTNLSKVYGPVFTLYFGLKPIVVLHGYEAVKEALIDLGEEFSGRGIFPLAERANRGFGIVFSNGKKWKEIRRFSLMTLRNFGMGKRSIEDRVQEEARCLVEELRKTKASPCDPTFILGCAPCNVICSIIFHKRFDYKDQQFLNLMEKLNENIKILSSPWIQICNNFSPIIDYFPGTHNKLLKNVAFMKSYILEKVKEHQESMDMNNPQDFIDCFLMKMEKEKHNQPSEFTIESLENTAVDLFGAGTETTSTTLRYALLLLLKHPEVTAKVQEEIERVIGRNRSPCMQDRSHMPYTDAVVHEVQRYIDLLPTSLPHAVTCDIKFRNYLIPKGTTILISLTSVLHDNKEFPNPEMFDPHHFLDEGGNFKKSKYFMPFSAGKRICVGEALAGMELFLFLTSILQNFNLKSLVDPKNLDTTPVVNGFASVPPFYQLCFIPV
Chain of CYP2D6 (P10635 whole entry): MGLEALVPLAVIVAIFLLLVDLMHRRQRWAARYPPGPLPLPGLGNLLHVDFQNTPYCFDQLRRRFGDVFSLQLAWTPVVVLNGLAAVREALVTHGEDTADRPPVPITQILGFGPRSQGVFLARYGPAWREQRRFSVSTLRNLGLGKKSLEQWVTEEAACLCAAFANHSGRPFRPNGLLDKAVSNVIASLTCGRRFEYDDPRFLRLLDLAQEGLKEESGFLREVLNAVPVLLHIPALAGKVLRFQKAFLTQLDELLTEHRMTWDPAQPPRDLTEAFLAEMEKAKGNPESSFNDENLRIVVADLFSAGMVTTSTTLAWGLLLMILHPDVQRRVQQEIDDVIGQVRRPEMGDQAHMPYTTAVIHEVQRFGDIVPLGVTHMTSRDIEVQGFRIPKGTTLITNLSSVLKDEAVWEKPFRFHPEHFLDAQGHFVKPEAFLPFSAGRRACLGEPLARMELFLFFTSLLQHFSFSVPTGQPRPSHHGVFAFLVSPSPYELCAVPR
Chain of Voltage-gated inwardly rectifying potassium channel KCNH2 (Q12809 whole entry): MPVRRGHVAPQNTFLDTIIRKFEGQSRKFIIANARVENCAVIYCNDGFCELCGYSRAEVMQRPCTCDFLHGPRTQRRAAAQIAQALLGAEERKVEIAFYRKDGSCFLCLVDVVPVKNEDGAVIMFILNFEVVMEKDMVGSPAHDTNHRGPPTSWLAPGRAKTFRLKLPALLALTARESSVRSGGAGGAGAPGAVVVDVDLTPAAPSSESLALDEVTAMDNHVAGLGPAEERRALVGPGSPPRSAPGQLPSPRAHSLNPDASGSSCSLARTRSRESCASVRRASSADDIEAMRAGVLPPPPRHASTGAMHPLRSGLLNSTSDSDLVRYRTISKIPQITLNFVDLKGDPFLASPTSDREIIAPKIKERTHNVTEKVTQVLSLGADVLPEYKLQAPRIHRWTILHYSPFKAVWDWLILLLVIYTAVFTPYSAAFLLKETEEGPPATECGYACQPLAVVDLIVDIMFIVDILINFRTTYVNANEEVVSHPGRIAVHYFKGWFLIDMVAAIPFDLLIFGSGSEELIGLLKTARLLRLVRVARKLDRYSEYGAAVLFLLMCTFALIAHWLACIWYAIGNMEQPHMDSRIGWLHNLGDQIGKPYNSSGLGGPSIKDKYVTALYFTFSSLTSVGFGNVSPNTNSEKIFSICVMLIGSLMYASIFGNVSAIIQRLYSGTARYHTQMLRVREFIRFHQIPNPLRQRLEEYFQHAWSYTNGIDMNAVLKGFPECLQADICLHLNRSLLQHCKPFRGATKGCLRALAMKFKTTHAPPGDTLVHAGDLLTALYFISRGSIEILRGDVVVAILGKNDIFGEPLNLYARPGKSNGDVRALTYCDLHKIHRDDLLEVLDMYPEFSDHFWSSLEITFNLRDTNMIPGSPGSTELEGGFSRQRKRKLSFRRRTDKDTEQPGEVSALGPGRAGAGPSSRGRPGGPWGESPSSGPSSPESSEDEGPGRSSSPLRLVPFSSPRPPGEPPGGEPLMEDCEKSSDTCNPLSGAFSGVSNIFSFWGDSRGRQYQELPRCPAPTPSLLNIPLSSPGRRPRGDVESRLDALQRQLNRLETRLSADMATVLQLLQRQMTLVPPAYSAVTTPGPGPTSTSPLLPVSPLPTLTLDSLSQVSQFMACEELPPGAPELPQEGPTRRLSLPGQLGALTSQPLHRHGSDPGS
Chain of CYP3A4 (P08684 whole entry): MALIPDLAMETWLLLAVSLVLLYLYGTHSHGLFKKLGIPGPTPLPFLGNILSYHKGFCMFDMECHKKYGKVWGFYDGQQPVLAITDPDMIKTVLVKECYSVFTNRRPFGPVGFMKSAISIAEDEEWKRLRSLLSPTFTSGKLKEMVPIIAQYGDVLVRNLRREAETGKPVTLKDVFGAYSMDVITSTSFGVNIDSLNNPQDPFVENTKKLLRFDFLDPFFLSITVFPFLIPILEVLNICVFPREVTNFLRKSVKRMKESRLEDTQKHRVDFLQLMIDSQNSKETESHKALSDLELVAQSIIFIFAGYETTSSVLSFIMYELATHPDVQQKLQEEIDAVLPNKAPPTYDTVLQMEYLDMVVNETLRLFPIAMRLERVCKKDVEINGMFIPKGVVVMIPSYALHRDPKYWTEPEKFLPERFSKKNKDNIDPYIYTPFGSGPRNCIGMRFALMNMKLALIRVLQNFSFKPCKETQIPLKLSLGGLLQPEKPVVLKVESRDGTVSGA
Chain of CYP2C19 (P33261 whole entry): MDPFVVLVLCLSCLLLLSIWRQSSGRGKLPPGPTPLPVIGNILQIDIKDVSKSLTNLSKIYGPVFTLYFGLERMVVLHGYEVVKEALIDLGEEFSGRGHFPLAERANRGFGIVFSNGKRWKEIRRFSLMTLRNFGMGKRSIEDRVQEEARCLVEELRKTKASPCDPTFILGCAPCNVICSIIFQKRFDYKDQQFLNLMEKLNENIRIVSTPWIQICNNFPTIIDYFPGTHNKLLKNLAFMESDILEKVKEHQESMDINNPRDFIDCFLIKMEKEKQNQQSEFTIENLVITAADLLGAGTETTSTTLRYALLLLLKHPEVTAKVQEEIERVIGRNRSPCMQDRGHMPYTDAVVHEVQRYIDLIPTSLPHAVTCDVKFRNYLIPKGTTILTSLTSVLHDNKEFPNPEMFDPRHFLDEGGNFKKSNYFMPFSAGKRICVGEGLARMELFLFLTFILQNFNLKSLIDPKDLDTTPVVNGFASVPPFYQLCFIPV

In [1], `CN1C(=O)[C@@H](NC(=O)c2nc(Cc3ccccc3)n[nH]2)COc2ccc(C#CC3CC3)cc21` returned a bioavailability of 99%. This compound returned a Vdss in [2] of 0.902 L/kg. In addition, the CL/F in data set [3] is 3.54 mL/min/kg. This compound came in with an AUClast in data set [4] of 15000 ng·h/mL.
In turn, `COc1cc2c(cn1)N(C)C(=O)[C@@H](NC(=O)c1nc3n(n1)[C@H](c1ccccc1)CC3)CC2` showed a Vd in [5] of 1.84 L/kg. The clearance in data set [6] was found to be 49.2 mL/min/kg. The compound further gave a half-life in data set [7] of 31.8 min.
On to `N#Cc1c(Oc2ccc(F)c(NC(=O)Cc3cccc(C(F)(F)F)c3)c2)ccc2nc(NC(=O)C3CC3)sc12`, for which, in data set [8], the Kd amounted to 105 nM.
Regarding `CN(c1ccc(NC(=O)Nc2ccc(OC(F)(F)F)cc2)cc1)c1ccnc(Nc2cccc(S(N)(=O)=O)c2)n1` [GW806742X], in data set [9], the IC50 was less than 50 nM. In addition, the EC50 with Jurkat [10] came out at 1850 nM.
Turning to `COc1nccnc1NS(=O)(=O)c1ccc(NC(=O)/C=C/c2ccc([N+](=O)[O-])s2)cc1`, the half-maximal inhibitory concentration (IC50) with Jurkat [11] was less than 1000 nM; in the data set with HT-29, < 1000 nM and 124 nM.
With `CC(C)(C)C(=O)N1N=CC[C@H]1c1ccccc1`, the IC50 in [12] came out at 3 nM.
In data set [13], `Cc1cc(-c2cnc(N)c3c(-c4ccc5scnc5c4)csc23)n(C)n1` registered an inhibition of 84%.
Turning to `Cc1ccc(O)cc1Nc1ccnc2cc(-c3ccccn3)ccc12`, the EC50 in data set [14] worked out at 73.6 nM.
In turn, `Cc1ccc(Oc2ccnc3cc(-c4cnn(C5CCNCC5)c4)ccc23)cc1` showed an EC50 in data set [15] of 20.8 nM.
On to `Cl.O=S1(=O)C=C(C2CC2)c2cc3nccc(Nc4ccc5scnc5c4)c3cc21`, for which the inhibition at 10 µM against CYP3A4, against CYP1A2, against CYP2D6, against CYP2C19 and on CYP2C9 was less than 10% each time. Besides, the values for the CLint scaled in [16] and in data set [18] were 212 mL/min/kg and 67 mL/min/kg, respectively. Further, the values for the half-life in data set [17], in data set [22] and in data set [23] were 36 min, 26 min and 90 min, respectively. This compound had an AUC in data set [19] of 8200 ng·h/mL. The compound further had a clearance in [20] of 33 mL/min/kg. The compound also came in with a Vd in [21] of 4.4 L/kg. Further, in [24], the IC50 is more than 10000 nM.
For the compound `CC(C)S(=O)(=O)c1ccc2nccc(Nc3ccc4scnc4c3)c2c1`, the inhibition in [13] worked out at 76%.

Source of the values: ChEMBL document CHEMBL5338727, “From (Tool)Bench to Bedside: The Potential of Necroptosis Inhibitors” (J Med Chem, 2023).
